Experimental data: US20240415816A1, “ADJUNCTIVE D-CYCLOSERINE AUGMENTATION OF TRANSCRANIAL MAGNETIC STIMULATION (TMS) THERAPY FOR OBSESSIVE COMPULSIVE DISORDER” (MCGRX CORP., priority 2021, published 2024)
Entries after “also recorded” stand apart in the source; their conditions may differ.

Tests used:
[1] = Motor cortex TMS plasticity: stimulus response curve slope after single and repeated spaced iTBS, randomized double-blind placebo-controlled crossover study; assay type: in vivo, human; conditions: healthy participants (n=20), +30 and +60 minutes, vs placebo condition
Method: Methods: A randomized double-blind placebo-controlled crossover study in healthy participants (n=20) was conducted (NCT05081986). Participants completed the study in two experimental sessions separated. In these experiments, the motor cortex was stimulated twice using TMS intermittent theta burst stimulation (iTBS) with a one-hour interval between interventions. In random order, this was done with placebo or D-cycloserine (100 mg) as adjuvant, and then the converse at least one week later. The participants' surface anatomical markers were registered to a template magnetic resonance brain image using Neuronavigation software (ANT Neuro, Germany) to permit neuronavigation and reliable targeting throughout the experiment. Transcranial magnetic stimulation involved a MagPro X100 system with Cool-B70 figure-eight coil (MagVenture, Denmark). The iTBS protocol consisted of 20 trains of bursts of 3-pulses at 50 Hz, repeated at 5 Hz with an 8 second inter-train interval at 80% RMT. Motor evoked potentials (MEPs) from the first-dorsal interosseous muscle were sampled to describe stimulus response curves using CED Signal (Cambridge, England) before and after iTBS. […] EMG data were analyzed offline using MATLAB via custom written scripts as previously described^123. […]

[2] = Wisconsin Card Sorting Task in the OCD randomized double-blind trial; assay type: in vivo, human; conditions: iTBS+DCS (100 mg), baseline vs after 4 weeks of treatment, compared with iTBS+Placebo and Sham-iTBS
Method: The efficacy of 100 mg DCS as an adjunctive strategy to iTBS to reduce OCD-related cognitive impairment and/or improve cognition in OCD was tested in a randomized double-blind 4-week study described in the Example above. Participants completed the Wisconsin Card Sorting Task at baseline and after 4 weeks of treatment. The preplanned focus was on the percent perseverative errors as an index of executive function, cognitive flexibility and cognitive control.

## N[C@@H]1CON=C1O [DCS, D-cycloserine]
[1]; DCS 100 mg as adjuvant to iTBS of motor cortex
  change in stimulus response curve (SRC) slope after first (single) iTBS: stable after a single iTBS; also recorded: the initial SRC shift at +30 minutes remains stable at +60 minutes
[1]; DCS 100 mg, second iTBS 60 minutes after the first
  change in stimulus response curve (SRC) slope after second (repeated spaced) iTBS: compound with spaced repeated iTBS; also recorded: a further shift in SRC slope in the DCS condition at +30 minutes that was sustained at +60 minutes
[2]
  percentage of perseverative errors (Wisconsin Card Sorting Task): significant reductions in the percentage of perseverative errors; also recorded: decrease in the percent perseverative errors
